The source of these data is PMC4116459 (Molecular microbiology, 2014).

The structures appear in SMILES notation.

One test deals with BcsE (Escherichia coli, UniProt P37657). Nature of the test: equilibrium dialysis with purified MBP-BcsE. The format is binding. A general note: In equilibrium dialysis only unbound substance equilibrates across the membrane.
In a further test the target is T1, YcgR (Escherichia coli, UniProt P76010).
T1 sequence (P76010 1-244): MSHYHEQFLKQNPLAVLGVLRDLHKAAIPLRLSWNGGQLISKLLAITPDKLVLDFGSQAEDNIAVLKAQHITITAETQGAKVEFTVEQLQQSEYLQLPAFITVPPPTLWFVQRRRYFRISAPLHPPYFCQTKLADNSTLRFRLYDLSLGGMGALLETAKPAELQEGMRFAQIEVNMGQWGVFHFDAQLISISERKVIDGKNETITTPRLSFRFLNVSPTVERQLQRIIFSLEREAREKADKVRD
Nature of the test: […]-c-di-GMP DRaCALA with cell lysates, competed by unlabeled c-di-GMP. In kind it is cell-based.

Sequence of BcsE (P37657 whole entry): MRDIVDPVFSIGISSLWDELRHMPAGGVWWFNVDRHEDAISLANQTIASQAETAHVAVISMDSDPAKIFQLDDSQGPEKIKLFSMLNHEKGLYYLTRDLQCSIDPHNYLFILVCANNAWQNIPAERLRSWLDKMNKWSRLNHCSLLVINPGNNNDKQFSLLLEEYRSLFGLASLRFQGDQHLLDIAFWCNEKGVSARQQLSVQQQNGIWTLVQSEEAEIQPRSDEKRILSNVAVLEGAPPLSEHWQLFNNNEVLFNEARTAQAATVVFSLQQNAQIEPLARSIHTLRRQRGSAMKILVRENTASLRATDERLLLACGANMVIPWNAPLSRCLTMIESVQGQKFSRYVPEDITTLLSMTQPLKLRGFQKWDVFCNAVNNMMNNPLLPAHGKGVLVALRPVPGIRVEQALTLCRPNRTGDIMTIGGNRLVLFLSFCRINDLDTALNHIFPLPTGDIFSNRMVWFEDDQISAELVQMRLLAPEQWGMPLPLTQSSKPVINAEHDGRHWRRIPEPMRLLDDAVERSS

On to `Nc1nc2c(ncn2[C@@H]2O[C@@H]3COP(=O)(O)O[C@H]4[C@@H](O)[C@H](n5cnc6c(=O)[nH]c(N)nc65)O[C@@H]4COP(=O)(O)O[C@H]3[C@H]2O)c(=O)[nH]1` [c-di-GMP], for which, at BcsE, the affinity, expressed as Kd, was 2420 nM. The “33P-c-di-GMP DRaCALA with cell lysates, competed by unlabeled c-di-GMP” value on YcgR is “Only the YcgR and Clp lysates produced positive signals (Fig. 1B)”.

Usually Kd stands for the concentration at which binding is half-saturated. A high value points to lower affinity.
